Test results reported in US8828908B2, “Herbicidally active bicyclic 1,3-dione compounds” (Syngenta Limited, priority 2007, dated 2014).

Tests used:
Assay type in all cases: in vivo
[1] = system: Alopecurus myosuroides (ALOMY); test: Example B pre-emergence herbicidal greenhouse test; details: 480 h, evaluated after 20 days, 100=total damage to plant, 0=no damage
Protocol: (§1) Seeds of a variety of test species were sown in standard soil in pots. After cultivation for one day (pre-emergence) or after 10 days cultivation (post-emergence) under controlled conditions in a glasshouse, the plants were sprayed with an aqueous spray solution derived from the formulation of the technical active ingredient in 0.6 ml acetone and 45 ml formulation solution containing 10.6% Emulsogen EL (Registry number 61791-12-6), 42.2% N-methylpyrrolidone, 42.2% dipropylene glycol monomethyl ether (Registry number 34590-94-8) and 0.2% X-77 (Registry number 11097-66-8). The test plants were then grown in a greenhouse under optimum conditions until, 15 days later for post-emergence and 20 days for pre-emergence, the test was evaluated (100=total damage to plant; 0=no damage to plant).
(§2) Alopecurus myosuroides (ALOMY), Avena fatua (AVEFA), Lolium perenne (LOLPE), Setaria faberi (SETFA), Digitaria sanguinalis (DIGSA), Echinochloa crus-galli (ECHCG)

[2] = system: Digitaria sanguinalis (DIGSA); test: Example B pre-emergence herbicidal greenhouse test; details: 480 h, evaluated after 20 days, 100=total damage to plant, 0=no damage
Protocol: as §1, §2

Avena fatua (AVEFA) [3] = test: Example B pre-emergence herbicidal greenhouse test; details: 480 h, evaluated after 20 days, 100=total damage to plant, 0=no damage
Protocol: as §1, §2

Setaria faberi (SETFA) [4] = test: Example B pre-emergence herbicidal greenhouse test; details: 480 h, evaluated after 20 days, 100=total damage to plant, 0=no damage
Protocol: as §1, §2

Lolium perenne (LOLPE) [5] = test: Example B pre-emergence herbicidal greenhouse test; details: 480 h, evaluated after 20 days, 100=total damage to plant, 0=no damage
Protocol: as §1, §2

[6] = system: Echinochloa crus-galli (ECHCG); test: Example B pre-emergence herbicidal greenhouse test; details: 480 h, evaluated after 20 days, 100=total damage to plant, 0=no damage
Protocol: as §1, §2

[7] = system: Alopecurus myosuroides (ALOMY); test: Example B post-emergence herbicidal greenhouse test; details: 360 h, evaluated after 15 days, 100=total damage to plant, 0=no damage
Protocol: as §1, §2

[8] = system: Digitaria sanguinalis (DIGSA); test: as above; details: 360 h, evaluated after 15 days, 100=total damage to plant, 0=no damage
Protocol: as §1, §2

Avena fatua (AVEFA) [9] = test: as above; details: 360 h, evaluated after 15 days, 100=total damage to plant, 0=no damage
Protocol: as §1, §2

Setaria faberi (SETFA) [10] = test: as above; details: 360 h, evaluated after 15 days, 100=total damage to plant, 0=no damage
Protocol: as §1, §2

Lolium perenne (LOLPE) [11] = test: as above; details: 360 h, evaluated after 15 days, 100=total damage to plant, 0=no damage
Protocol: as §1, §2

[12] = system: Echinochloa crus-galli (ECHCG); test: as above; details: 360 h, evaluated after 15 days, 100=total damage to plant, 0=no damage
Protocol: as §1, §2

[13] = system: Alopecurus myosuroides (ALOMY); test: Example A post-emergence herbicidal glasshouse test; details: 312 h, evaluated after 13 days, 100=total damage to plant, 0=no damage
Protocol: (§3) Seeds of a variety of test species were sown in standard soil in pots. After cultivation for one day (pre-emergence) or after 8 days cultivation (post-emergence) under controlled conditions in a glasshouse (at 24/16° C., day/night; 14 hours light; 65% humidity), the plants were sprayed with an aqueous spray solution derived from the formulation of the technical active ingredient in acetone/water (50:50) solution containing 0.5% Tween 20 (polyoxyethelyene sorbitan monolaurate, CAS RN 9005-64-5). The test plants were then grown in a glasshouse under controlled conditions in a glasshouse (at 24/16° C., day/night; 14 hours light; 65% humidity) and watered twice daily. After 13 days for pre and post-emergence, the test was evaluated (100=total damage to plant; 0=no damage to plant).
(§4) Alopecurus myosuroides (ALOMY), Avena fatua (AVEFA), Setaria faberi (SETFA), Echinochloa crus-galli (ECHCG), Solanum nigrum (SOLNI) and Amaranthus retroflexus (AMARE)

[14] = system: Amaranthus retroflexus (AMARE); test: as above; details: 312 h, evaluated after 13 days, 100=total damage to plant, 0=no damage
Protocol: as §3, §4

Avena fatua (AVEFA) [15] = test: as above; details: 312 h, evaluated after 13 days, 100=total damage to plant, 0=no damage
Protocol: as §3, §4

Setaria faberi (SETFA) [16] = test: as above; details: 312 h, evaluated after 13 days, 100=total damage to plant, 0=no damage
Protocol: as §3, §4

[17] = system: Echinochloa crus-galli (ECHCG); test: as above; details: 312 h, evaluated after 13 days, 100=total damage to plant, 0=no damage
Protocol: as §3, §4

[18] = system: Alopecurus myosuroides (ALOMY); test: Example A pre-emergence herbicidal glasshouse test; details: 312 h, Rate 250 g/ha, evaluated after 13 days, 100=total damage to plant, 0=no damage to plant
Protocol: as §3, §4

[19] = system: Amaranthus retroflexus (AMARE); test: Example A pre-emergence herbicidal glasshouse test; details: 312 h, Rate 250 g/ha, evaluated after 13 days, 100=total damage to plant, 0=no damage to plant
Protocol: as §3, §4

Avena fatua (AVEFA) [20] = test: Example A pre-emergence herbicidal glasshouse test; details: 312 h, Rate 250 g/ha, evaluated after 13 days, 100=total damage to plant, 0=no damage to plant
Protocol: as §3, §4

Setaria faberi (SETFA) [21] = test: Example A pre-emergence herbicidal glasshouse test; details: 312 h, Rate 250 g/ha, evaluated after 13 days, 100=total damage to plant, 0=no damage to plant
Protocol: as §3, §4

[22] = system: Echinochloa crus-galli (ECHCG); test: Example A pre-emergence herbicidal glasshouse test; details: 312 h, Rate 250 g/ha, evaluated after 13 days, 100=total damage to plant, 0=no damage to plant
Protocol: as §3, §4

Row | SMILES | pest or weed control at 250 g/ha [13] [%] | pest or weed control at 250 g/ha [14] [%] | pest or weed control at 250 g/ha (Avena fatua (AVEFA) [15]) [%] | pest or weed control at 250 g/ha (Setaria faberi (SETFA) [16]) [%] | pest or weed control at 250 g/ha [17] [%] | pest or weed control at 250 g/ha [18] [%] | pest or weed control at 250 g/ha [19] [%] | pest or weed control at 250 g/ha (Avena fatua (AVEFA) [20]) [%] | pest or weed control at 250 g/ha (Setaria faberi (SETFA) [21]) [%] | pest or weed control at 250 g/ha [22] [%] | further results
1 | CCc1ccc(-c2ccccc2)cc1C1=C(O)[C@H]2CC[C@H](C2)C1=O (single isomer, unassigned) [Compound T2] |  |  |  |  |  |  |  |  |  |  | pest or weed control at 250 g/ha [1]: 0%; pest or weed control at 250 g/ha [2]: 0%; pest or weed control at 250 g/ha (Avena fatua (AVEFA) [3]): 20%; pest or weed control at 250 g/ha (Setaria faberi (SETFA) [4]): 0%; pest or weed control at 250 g/ha (Lolium perenne (LOLPE) [5]): 10%; pest or weed control at 250 g/ha [6]: 100%; pest or weed control at 125 g/ha [7]: 10%; pest or weed control at 125 g/ha [8]: 0%; pest or weed control at 125 g/ha (Avena fatua (AVEFA) [9]): 0%; pest or weed control at 125 g/ha (Setaria faberi (SETFA) [10]): 30%; pest or weed control at 125 g/ha (Lolium perenne (LOLPE) [11]): 0%; pest or weed control at 125 g/ha [12]: 60%
2 | Cc1cc(-c2ccc(C)c(C3=C(O)[C@H]4CC[C@H](C4)C3=O)c2)ccc1Cl (single isomer, unassigned) [Compound T24] |  |  |  |  |  |  |  |  |  |  | pest or weed control at 250 g/ha [1]: 40%; pest or weed control at 250 g/ha [2]: 70%; pest or weed control at 250 g/ha (Avena fatua (AVEFA) [3]): 0%; pest or weed control at 250 g/ha (Setaria faberi (SETFA) [4]): 20%; pest or weed control at 250 g/ha (Lolium perenne (LOLPE) [5]): 10%; pest or weed control at 250 g/ha [6]: 80%; pest or weed control at 125 g/ha [8]: 0%; pest or weed control at 125 g/ha (Setaria faberi (SETFA) [10]): 0%; pest or weed control at 125 g/ha [12]: 30%
3 | Cc1cc(-c2ccccc2)ccc1C1=C(O)[C@H]2CC[C@H](C2)C1=O (single isomer, unassigned) [Compound T58] | 60 | 0 | 0 | 100 | 70 | 10 | 30 | 0 | 20 | 40 | 
4 | CCc1cc(-c2ccc(C)cc2)ccc1C1=C(O)[C@H]2CC[C@H](C2)C1=O (single isomer, unassigned) [Compound T60] | 90 | 0 | 50 | 100 | 100 | 60 | 0 | 30 | 100 | 100 | 
5 | CCc1ccc(-c2cnc(Cl)cc2C)cc1C1=C(O)[C@H]2CC[C@H](C2)C1=O (single isomer, unassigned) [Compound T77] | 30 | 0 | 0 | 90 | 80 | 0 | 0 | 0 | 30 | 0 | 
6 | CCc1ccc(-c2ccc(Cl)nc2)cc1C1=C(O)[C@H]2CC[C@H](C2)C1=O (single isomer, unassigned) [Compound T78] | 70 | 0 | 60 | 100 | 100 | 40 | 0 | 30 | 90 | 60 | 
7 | CCc1ccc(-c2ccc(Cl)nc2C)cc1C1=C(O)[C@H]2CC[C@H](C2)C1=O (single isomer, unassigned) [Compound T79] | 40 | 0 | 20 | 100 | 90 | 0 | 0 | 0 | 70 | 0 | 
